Experimental data: ChEMBL document CHEMBL1159198, “Identification of magnolol and honokiol as anxiolytic agents in extracts of saiboku-to, an oriental herbal medicine” (1998)
The source made the active and inactive calls. The calls are words filed in the database; no cut-off is given here.

What was measured:
Mus musculus [1] = assay: Anxiolytic activity in ddY mouse assessed as time spent in open-sided arms at 0.49 mg/kg, po administered once daily for 7 days by elevated plus-maze test; format: functional, organism-based; parameters: dose 0.49 mg/kg
Mus musculus [2] = assay: Anxiolytic activity in ddY mouse assessed as time spent in open-sided arms at 1 mg/kg, po administered once daily for 1 day by elevated plus-maze test; format: functional
Mus musculus [3] = assay: Anxiolytic activity in ddY mouse assessed as time spent in open-sided arms at 0.19 mg/kg, po administered once daily for 7 days by elevated plus-maze test; format: functional
Mus musculus [4] = assay: Anxiolytic activity in ddY mouse assessed as time spent in open-sided arms at 0.19 mg/kg, po administered once daily for 1 day by elevated plus-maze test; format: functional
Mus musculus [5] = assay: Anxiolytic activity in ddY mouse assessed as time spent in open-sided arms at 0.19 mg/kg, po administered once daily for 5 days by elevated plus-maze test; format: functional
Mus musculus [6] = assay: Anxiolytic activity in ddY mouse assessed as time spent in open-sided arms at 0.19 mg/kg, po administered once daily for 14 days by elevated plus-maze test; format: functional
Mus musculus [7] = assay: Anxiolytic activity in ddY mouse assessed as time spent in open-sided arms at 0.19 mg/kg, po administered once daily for 3 days by elevated plus-maze test; format: functional

Structure (SMILES)	Activity (Mus musculus [1])	Time (Mus musculus [2]) [s]	Time (Mus musculus [3]) [s]	Time (Mus musculus [4]) [s]	Time (Mus musculus [5]) [s]	Time (Mus musculus [6]) [s]	Time (Mus musculus [7]) [s]
C=CCc1ccc(O)c(-c2cc(CC=C)ccc2O)c1	Active	–	–	–	–	–	–
CN1C(=O)CN=C(c2ccccc2)c2cc(Cl)ccc21 [DIAZEPAM]	–	22.1	–	–	–	–	–
C=CCc1ccc(O)c(-c2ccc(O)c(CC=C)c2)c1 [HONOKIOL]	Active	–	10.9	3.7	9.1	12.3	4
